Among the data in patent publication US10654832B2, “3-(benzoimidazol-2-YL)-indazole inhibitors of the Wnt signaling pathway and therapeutic uses thereof” (Samumed, LLC, priority 2013, dated 2020) are IC50 values, retold here.

The subject of this test is Wnt activity (wnt-responsive SP5 promoter luciferase reporter in SW480 cells). Put plainly: Wnt activity reporter assay (SP5 promoter-firefly luciferase in SW480 cells). Format: cell-based. As to conditions: Homo sapiens; SW480 colon cancer cells with SP5 promoter luciferase reporter; 24 h after compound addition; half-log dilutions, three micromolar top concentration; normalized to DMSO; read-out: Wnt inhibition. The source says: The above synthesized compounds were screened using the assay procedure for Wnt activity described below.
Reporter cell lines were generated by stably transducing cells of cancer cell lines (e.g., colon cancer) with a lentiviral construct that include a wnt-responsive promoter driving expression of the firefly luciferase gene.
Lentiviral constructs were made in which the SP5 promoter, a promoter having eight TCF/LEF binding sites derived from the SP5 promoter, was linked upstream of the firefly luciferase gene. The lentiviral constructs included a hygromycin resistance gene as a selectable marker. The SP5 promoter construct was used to transduce SW480 cells, a colon cancer cell line having a mutated APC gene that generates a truncated APC protein, leading to de-regulated accumulation of β-catenin.
Cultured SW480 cells bearing a reporter construct were distributed at approximately 10,000 cells per well into 384 well multiwell plates. Compounds were then added to the wells in half-log dilutions using a three micromolar top concentration. A series of control wells for each cell type received only buffer and compound solvent. Twenty-four hours after the addition of compound, reporter activity for luciferases was assayed, for example, by addition of the BrightGlo luminescence reagent (Promega) and the Victor3 plate reader (Perkin Elmer). Readings were normalized to DMSO only treated cells, and normalized activities were then used for the IC50 calculations.

SMILES strings stand for the structures.

Consider `CC(C)(C)CC(=O)Nc1cncc(-c2ccc3[nH]nc(-c4nc5c(-c6cccnc6)cccc5[nH]4)c3c2)c1` [Compound 88, 3,3-Dimethyl-N-(5-(3-(4-(pyridin-3-yl)-1H-benzo[d]imidazol-2-yl)-1H-indazol-5-yl)pyridin-3-yl)butanamide], for which the IC50 is 135 nM.
Take `O=C(Nc1cncc(-c2ccc3[nH]nc(-c4nc5c(-c6ccccn6)cccc5[nH]4)c3c2)c1)C1CCCCC1` [Compound 142, N-(5-(3-(4-(Pyridin-2-yl)-1H-benzo[d]imidazol-2-yl)-1H-indazol-5-yl)pyridin-3-yl)cyclohexanecarboxamide]: the IC50 worked out at 155 nM.
For the compound `CCNCc1cncc(-c2ccc3[nH]nc(-c4nc5c(-c6ccsc6)cccc5[nH]4)c3c2)c1` [Compound 246, N-((5-(3-(4-(Thiophen-3-yl)-1H-benzo[d]imidazol-2-yl)-1H-indazol-5-yl)pyridin-3-yl)methyl)ethanamine], the IC50 came to 14 nM.
Take `CC(C)Nc1cncc(-c2ccc3[nH]nc(-c4nc5c(-c6ccncc6)cccc5[nH]4)c3c2)c1` [Compound 108, N-Isopropyl-5-(3-(4-(pyridin-4-yl)-1H-benzo[d]imidazol-2-yl)-1H-indazol-5-yl)pyridin-3-amine]: the IC50 was determined as 16 nM.
With `O=C(Nc1cncc(-c2ccc3[nH]nc(-c4nc5c(-c6cccc(F)c6)cccc5[nH]4)c3c2)c1)C1CCCCC1` [Compound 22, N-(5-(3-(4-(3-Fluorophenyl)-1H-benzo[d]imidazol-2-yl)-1H-indazol-5-yl)pyridin-3-yl)cyclohexanecarboxamide] the figure was 180 nM; with `CCCCC(=O)Nc1cncc(-c2ccc3[nH]nc(-c4nc5c(-c6ccccn6)cccc5[nH]4)c3c2)c1` [Compound 138, N-(5-(3-(4-(Pyridin-2-yl)-1H-benzo[d]imidazol-2-yl)-1H-indazol-5-yl)pyridin-3-yl)pentanamide], 18 nM; with `CC(C)C(=O)Nc1cncc(-c2ccc3[nH]nc(-c4nc5ccccc5[nH]4)c3c2)c1` [Compound 225, N-(5-(3-(1H-Benzo[d]imidazol-2-yl)-1H-indazol-5-yl)pyridin-3-yl) isobutyramide], 28 nM.
Regarding `CN(C)Cc1cncc(-c2ccc3[nH]nc(-c4nc5c(-c6ccsc6)cccc5[nH]4)c3c2)c1` [Compound 253, N,N-Dimethyl-1-(5-(3-(4-(thiophen-3-yl)-1H-benzo[d]imidazol-2-yl)-1H-indazol-5-yl)pyridin-3-yl)methanamine], the IC50 came out at 7 nM.
Then `CCCCC(=O)Nc1cncc(-c2ccc3[nH]nc(-c4nc5c(-c6cccnc6)cccc5[nH]4)c3c2)c1` [Compound 90, N-(5-(3-(4-(Pyridin-3-yl)-1H-benzo[d]imidazol-2-yl)-1H-indazol-5-yl)pyridin-3-yl)pentanamide], with 11 nM; and `Cc1cn(-c2cccc3[nH]c(-c4n[nH]c5ccc(-c6cncc(NC(=O)CC(C)(C)C)c6)cc45)nc23)cn1` [Compound 184, 3,3-Dimethyl-N-(5-(3-(4-(4-methyl-1H-imidazol-1-yl)-1H-benzo[d]imidazol-2-yl)-1H-indazol-5-yl)pyridin-3-yl)butanamide], with 115 nM.
Regarding `CCCC(=O)Nc1cncc(-c2ccc3[nH]nc(-c4nc5c(N6CCN(C)CC6)cccc5[nH]4)c3c2)c1` [Compound 209, N-(5-(3-(4-(4-Methylpiperazin-1-yl)-1H-benzo[d]imidazol-2-yl)-1H-indazol-5-yl)pyridin-3-yl)butyramide], the IC50 worked out at 61 nM.
In the case of `CN(C)c1cncc(-c2ccc3[nH]nc(-c4nc5c(N6CCCCC6)cccc5[nH]4)c3c2)c1` [Compound 151, N,N-Dimethyl-5-(3-(4-(piperidin-1-yl)-1H-benzo[d]imidazol-2-yl)-1H-indazol-5-yl)pyridin-3-amine], the IC50 stood at 41 nM.
As for `c1cncc(-c2ccc3[nH]nc(-c4nc5ccccc5[nH]4)c3c2)c1` [Compound 220], the IC50 came to 165 nM.
`CCCCC(=O)Nc1cncc(-c2ccc3[nH]nc(-c4nc5ccccc5[nH]4)c3c2)c1` [Compound 234, N-(5-(3-(1H-Benzo[d]imidazol-2-yl)-1H-indazol-5-yl)pyridin-3-yl) pentanamide]: the IC50 is 123 nM.
